Experiments:
[1] = system: patients with predominantly obstructive sleep apnea; assay: Clinical study in obstructive sleep apnea; assay type: in vivo, human; settings: s.c. 100-600 μg, 2 months
Procedure: Obstructive Sleep Apnea: 10 patients with predominantly obstructive sleep apnea are treated with Compound A for 2 months. Sleep recordings, blood gases evaluation and endocrinological controls are performed before, on the first night and at 2 months of therapy. In this study, the compounds of the invention, e.g. Compound A, reduce the number of obstructive sleep apnea episodes when administered s.c. at a dose of 100-600 μg.

[2] = system: patients with central sleep apnea; assay: Clinical study in central sleep apnea; assay type: in vivo, human; settings: s.c. 100-600 μg, 2 months
Procedure: Central Sleep Apnea: 10 patients with central sleep apnea associated with high ventilatory responses to carbon dioxide, are treated with a compound of the invention for 2 months. Sleep recordings, ventilatory control studies (blood gases) and endocrinological controls are performed before, on the first night, at 2 weeks and at 2 months of therapy. In this study, the compounds of the invention, e.g. Compound A, reduce the abnormal high ventilatory responses and the number of central sleep apnea episodes, when administered s.c. at a dose of 100-600 μg.

[3] = Tolerability at dosages required for use; assay type: in vivo; settings: free form or pharmaceutically acceptable salt form

## cyclo[{4-(NH2—C2H4—NH—CO—O—)Pro}-Phg-DTrp-Lys-Tyr(4-Bzl)-Phe] [Compound A]
[1]
  number of obstructive sleep apnea episodes: reduce
[2]
  abnormal high ventilatory responses: reduce
  number of central sleep apnea episodes: reduce
[3]
  tolerability: well tolerated
